The supplement of paper PMC8671470

Legend:
Conditions in all cases: 72 h
[1] = system: BV-173
In short: (§1)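 Each of fifteen myeloid leukaemia cell lines was seeded in RPMI 1640 at a density titrated to its linear growth range. The cells were incubated for 72 h at 37 °C and 5% CO2 with compounds at five tenfold doses from 1 to 10,000 nM, in duplicate. After ATP luminescence was normalised to vehicle and to a positive control at 10 µM, four-parameter log-logistic curves were fitted. These curves gave the IC50.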

[2] = system: HEL
In short: as §1

[3] = system: HL-60
In short: as §1

[4] = system: K-562
In short: as §1

[5] = system: KCL-22
In short: as §1

[6] = system: KG-1
In short: as §1

[7] = system: KU-812
In short: as §1

[8] = system: LAMA-84
In short: as §1

[9] = system: ML-2
In short: as §1

[10] = system: MOLM-13
In short: as §1

[11] = system: MV4-11
In short: as §1

[12] = system: Mono-Mac-6
In short: as §1

[13] = system: NOMO-1
In short: as §1

[14] = system: SHI-1
In short: as §1

[15] = system: THP-1
In short: as §1

[16] = system: BV-173; experiment: cell viability (% survival relative to DMSO control, bortezomib = 0%); higher = less cytotoxic
In short: (§2)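 Fifteen myeloid leukaemia cell lines (10 AML, 5 CML) were seeded at a density titrated to the linear growth range into 384-well plates pre-printed with compounds at 1, 10, 100, 1000 or 10000 nM in duplicate. Plates were incubated for 72 h at 37 °C with 5% CO2. Viability was then read by CellTiter-Glo luminescence. Each value is percent survival averaged over the duplicates, with vehicle set to 100% and a 10 µM positive control to 0%.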

[17] = system: HEL; experiment: as above
In short: as §2

[18] = system: HL-60; experiment: as above
In short: as §2

[19] = system: KCL-22; experiment: as above
In short: as §2

[20] = system: KG-1; experiment: as above
In short: as §2

[21] = system: KU-812; experiment: as above
In short: as §2

[22] = system: LAMA-84; experiment: as above
In short: as §2

[23] = system: ML-2; experiment: as above
In short: as §2

[24] = system: MOLM-13; experiment: as above
In short: as §2

[25] = system: MV4-11; experiment: as above
In short: as §2

[26] = system: Mono-Mac-6; experiment: as above
In short: as §2

[27] = system: NOMO-1; experiment: as above
In short: as §2

[28] = system: SHI-1; experiment: as above
In short: as §2

[29] = system: THP-1; experiment: as above
In short: as §2

[30] = system: HL-60; experiment: area under dose-response curve (viability, 1 nM-10 uM) (fraction (0-1)); higher = more sensitive
In short: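 A rescreen of the full library used HL-60 cells in RPMI 1640 with 10% FBS on 384-well plates, run in duplicate at five tenfold concentrations (1–10,000 nM). Each screen included DMSO or 100 nM of one of three metabolic inhibitors and ran 72 h at 37 °C, 5% CO2. CellTiter-Glo viability was scaled between DMSO and 10 μM proteasome-inhibitor wells. Any area under the curve comes from four-parameter log-logistic fits with drc and PharmacoGx.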

COc1ccc(S(=O)(=O)N2CCN(S(=O)(=O)c3ccc4c(c3)OCCO4)CC2)cc1 [BML283]
Conditions | IC50 (cell viability) [µM]
[1] | > 10
[2] | > 10
[3] | > 10
[4] | > 10
[5] | > 10
[6] | > 10
[7] | > 10
[8] | > 10
[9] | > 10
[10] | > 10
[11] | > 10
[12] | > 10
[13] | > 10
[14] | > 10
[15] | > 10

Conditions | area under dose-response curve, co-treatment: AZD3965 100 nM | area under dose-response curve, co-treatment: DMSO vehicle | area under dose-response curve, co-treatment: GSK2194069 100 nM | area under dose-response curve, co-treatment: pictilisib 100 nM | cell viability, 1 nM [%] | cell viability, 10 nM [%] | cell viability, 100 nM [%] | cell viability, 1000 nM [%] | cell viability, 10000 nM [%]
[16] | – | – | – | – | 89.9 | 85.8 | 97.5 | 91.7 | 112
[17] | – | – | – | – | 107 | 88.3 | 96.7 | 90.8 | 101
[18] | – | – | – | – | 104 | 97.4 | 85.2 | 120 | 99.9
[19] | – | – | – | – | 106 | 93.3 | 91.1 | 98.1 | 91.2
[20] | – | – | – | – | 92.7 | 105 | 99 | 109 | 105
[21] | – | – | – | – | 90.3 | 99.5 | 103 | 108 | 96.5
[22] | – | – | – | – | 101 | 93.8 | 100 | 103 | 106
[23] | – | – | – | – | 102 | 98.6 | 105 | 106 | 102
[24] | – | – | – | – | 96.4 | 81.7 | 100 | 113 | 97.8
[25] | – | – | – | – | 103 | 93.6 | 89 | 94.1 | 101
[26] | – | – | – | – | 103 | 101 | 99.8 | 97.6 | 98.6
[27] | – | – | – | – | 98 | 95.1 | 94.9 | 102 | 99.7
[28] | – | – | – | – | 110 | 94.8 | 96.9 | 96.3 | 103
[29] | – | – | – | – | 98.5 | 103 | 99.3 | 98.9 | 103
[30] | < 0.0301 | < 0.0301 | < 0.0301 | 0.0571 | – | – | – | – | –

O=C1O/C(=C/Br)CCC1c1cccc2ccccc12 (configuration not stated) [Bromoenol Lactone]
Conditions | IC50 (cell viability) [µM]
[1] | 4.15
[2] | 8.39
[3] | > 10
[4] | 9.03
[5] | 7.07
[6] | 8.59
[7] | 5.18
[8] | > 10
[9] | > 10
[10] | 5.36
[11] | 5.73
[12] | > 10
[13] | 3.55
[14] | > 10
[15] | 4.53

Conditions | area under dose-response curve, co-treatment: AZD3965 100 nM | area under dose-response curve, co-treatment: DMSO vehicle | area under dose-response curve, co-treatment: GSK2194069 100 nM | area under dose-response curve, co-treatment: pictilisib 100 nM | cell viability, 1 nM [%] | cell viability, 10 nM [%] | cell viability, 100 nM [%] | cell viability, 1000 nM [%] | cell viability, 10000 nM [%]
[16] | – | – | – | – | 98.1 | 104 | 94.8 | 85.9 | 24.3
[17] | – | – | – | – | 105 | 103 | 91.3 | 99.8 | 41.3
[18] | – | – | – | – | 100 | 101 | 144 | 90.7 | 77.2
[19] | – | – | – | – | 95.3 | 93.1 | 104 | 86.6 | 52.2
[20] | – | – | – | – | 97.7 | 97.7 | 101 | 89.8 | 56.6
[21] | – | – | – | – | 98.3 | 93.3 | 102 | 86.1 | 45.8
[22] | – | – | – | – | 101 | 99.2 | 99.9 | 95.9 | 74
[23] | – | – | – | – | 102 | 100 | 94.6 | 92.9 | 59.7
[24] | – | – | – | – | 96.5 | 94 | 112 | 91.5 | 44.1
[25] | – | – | – | – | 99 | 106 | 105 | 92.4 | 45.8
[26] | – | – | – | – | 98.4 | 102 | 93.8 | 95.6 | 52.7
[27] | – | – | – | – | 108 | 100 | 100 | 82.7 | 40.4
[28] | – | – | – | – | 102 | 92.9 | 108 | 91.2 | 83.2
[29] | – | – | – | – | 97.3 | 97.6 | 92.3 | 81.4 | 44.7
[30] | < 0.0301 | < 0.0301 | < 0.0301 | < 0.0301 | – | – | – | – | –

CC[C@H](C)C(=O)O[C@H]1C[C@@H](C)C=C2C=C[C@H](C)[C@H](CC[C@@H]3C[C@@H](O)CC(=O)O3)[C@H]21 [Lovastatin]
Conditions | IC50 (cell viability) [µM]
[1] | > 10
[2] | > 10
[3] | > 10
[4] | > 10
[5] | > 10
[6] | > 10
[7] | > 10
[8] | > 10
[9] | > 10
[10] | > 10
[11] | > 10
[12] | > 10
[13] | > 10
[14] | > 10
[15] | > 10

Conditions | area under dose-response curve, co-treatment: AZD3965 100 nM | area under dose-response curve, co-treatment: DMSO vehicle | area under dose-response curve, co-treatment: GSK2194069 100 nM | area under dose-response curve, co-treatment: pictilisib 100 nM | cell viability, 1 nM [%] | cell viability, 10 nM [%] | cell viability, 100 nM [%] | cell viability, 1000 nM [%] | cell viability, 10000 nM [%]
[16] | – | – | – | – | 109 | 94.6 | 95.3 | 98.7 | 79.1
[17] | – | – | – | – | 101 | 87.8 | 114 | 92.6 | 86.3
[18] | – | – | – | – | 96.8 | 113 | 101 | 101 | 102
[19] | – | – | – | – | 93.6 | 67.8 | 114 | 98.8 | 95.4
[20] | – | – | – | – | 98.7 | 93.3 | 107 | 96.3 | 90.2
[21] | – | – | – | – | 102 | 96.4 | 94 | 87.2 | 84
[22] | – | – | – | – | 88.8 | 103 | 104 | 92.3 | 90.9
[23] | – | – | – | – | 108 | 105 | 111 | 104 | 102
[24] | – | – | – | – | 86.4 | 85.7 | 83.8 | 87.4 | 74.7
[25] | – | – | – | – | 97.6 | 97.3 | 106 | 93.5 | 93.2
[26] | – | – | – | – | 97.4 | 101 | 95.7 | 96.8 | 92.2
[27] | – | – | – | – | 101 | 91.9 | 97.2 | 93.6 | 90.7
[28] | – | – | – | – | 97.5 | 97.6 | 104 | 93.8 | 92.5
[29] | – | – | – | – | 98.1 | 88.8 | 100 | 97.3 | 98.6
[30] | < 0.0301 | < 0.0301 | < 0.0301 | 0.0554 | – | – | – | – | –
